How the values were obtained:
[1] = tested on: MTAP^-/- HCT-116 cells; assay: Cell proliferation (MTS), MTAP-/- HCT-116; type: cell-based, human; settings: for Selectivity: HCT116 WT IC50 relative to HCT116 MTAP-/- IC50; for IC50: Homo sapiens, 240 h, MTAP-/- HCT-116, 10 days with compound, MTS reading, read-out: IC50 HCT116 MTAP-/-
Text: The colon cancer cell strain HCT-116 (purchased from Nanjing Cobioer) was co-transfected with the gene editing tool CRISPR/Cas9 and sgRNA, and the MTAP^-/- HCT-116 cell strain with biallelic inactivation of MTAP was obtained by assays such as Western Blotting and Sanger sequencing. The MTAP^-/- HCT-116 cell strain was used for compound selectivity screening and evaluation based on the synergistic mechanism of MTAP deletion and PRMT5, including a symmetric dimethylarginine (SDMA) level test, a cell proliferation test, and the like.
On day 0, MTAP^-/- HCT-116 cells or wild-type HCT-116 cells were added to a 96-well cell culture plate (Corning, 3599) at 100 cells/well, and the plate was incubated in an incubator at 37 °C with 5% CO2. The compound was diluted in a 3-fold gradient with DMSO (Sigma, D5879) (initial concentration: 20 µM, 3-fold dilution, 8 concentration points in total). On day 1, the compound was diluted to multiple concentration points, and the cells were treated separately and incubated in the incubator at 37 °C with 5% CO2 for another 10 days. On Day 11, 20 µL of MTS (CellTiter 96® AQueous One Solution Cell Proliferation Assay) (Promega, G3581) was added to each well. […] In the formula, Y represents the inhibition rate, X represents the logarithm of the compound concentration, Top represents the maximum response (the inhibition rate at the maximum compound concentration), Bottom represents the baseline response (the inhibition rate where the compound concentration was 0), Hill Slope represents the slope of the IC50 curve, and IC50 represents the half maximal inhibitory concentration.

[2] = tested on: wild-type HCT-116 cells; assay: Cell proliferation (MTS), wild-type HCT-116; type: cell-based; settings: Homo sapiens, 240 h; wild-type HCT-116, 10 days with compound, MTS reading; read-out: IC50 HCT116 WT
Protocol: MTAP^-/- HCT-116 and wild-type HCT-116 cell strains were cultured in complete medium McCoy's 5A (Gibco, 16600082)/10% FBS (Gibco, 10099141C)/1% p/s (Gibco, 15140122) to evaluate the enhanced inhibitory effect of the compounds against the proliferation selectivity of MTAP^-/- HCT-116 cells. On day 0, MTAP^-/- HCT-116 cells or wild-type HCT-116 cells were added to a 96-well cell culture plate (Corning, 3599) at 100 cells/well, and the plate was incubated in an incubator at 37 °C with 5% CO2. The compound was diluted in a 3-fold gradient with DMSO (Sigma, D5879) (initial concentration: 20 µM, 3-fold dilution, 8 concentration points in total). On day 1, the compound was diluted to multiple concentration points, and the cells were treated separately and incubated in the incubator at 37 °C with 5% CO2 for another 10 days. On Day 11, 20 µL of MTS (CellTiter 96® AQueous One Solution Cell Proliferation Assay) (Promega, G3581) was added to each well. […] In the formula, Y represents the inhibition rate, X represents the logarithm of the compound concentration, Top represents the maximum response (the inhibition rate at the maximum compound concentration), Bottom represents the baseline response (the inhibition rate where the compound concentration was 0), Hill Slope represents the slope of the IC50 curve, and IC50 represents the half maximal inhibitory concentration. Table 1. IC50 (µM)

IC50 [1] [nM]	IC50 [2] [nM]	Structure (SMILES)	Selectivity [1]
12	1180	CN(C(=O)c1cc2c3c(c(N)nc2cc1Cl)COC3)[C@@H]1COc2cc(C#Cc3cnn(C4CCC4)c3)ccc21 [Compound 90A, (S)-4-amino-7-chloro-N-(6-((1-cyclobutyl-1H-pyrazol-4-yl)ethynyl)-2,3-dihydrobenzofuran-3-yl)-N-methyl-1,3-dihydrofuro[3,4-c]quinoline-8-carboxamide]	98
2	266	CN(C(=O)c1ccc2nc(N)c3cnn(C)c3c2c1)[C@@H]1COc2cc(C#Cc3cn(C)nc3Cl)ccc21 [Compound 34A, (S)-4-amino-N-(6-((3-chloro-1-methyl-1H-pyrazol-4-yl)ethynyl)-2,3-dihydrobenzofuran-3-yl)-N,1-dimethyl-1H-pyrazolo[4,3-c]quinoline-8-carboxamide]	133
3.6	480	Cc1c(C#Cc2ccc3c(c2)OC[C@H]3N(C)C(=O)c2ccc3nc(N)c4cnn(C)c4c3c2)cnn1C [Compound 29A, (S)-4-amino-N-(6-((1,5-dimethyl-1H-pyrazol-4-yl)ethynyl)-2,3-dihydrobenzofuran-3-yl)-N,1-dimethyl-1H-pyrazolo[4,3-c]quinoline-8-carboxamide]	133
2.9	240	CN(C(=O)c1ccc2nc(N)c3cnn(C)c3c2c1)[C@@H]1COc2cc(C#Cc3cnn(C(F)F)c3)ccc21 [Compound 30A, (S)-4-amino-N-(6-((1-(difluoromethyl)-1H-pyrazol-4-yl)ethynyl)-2,3-dihydrobenzofuran-3-yl)-N,1-dimethyl-1H-pyrazolo[4,3-c]quinoline-8-carboxamide]	83
22	2040	Cc1cn(C)nc1C#Cc1ccc2c(c1)OCC2N(C)C(=O)c1cc2c(cc1F)nc(N)c1cnn(C)c12 (stereo not drawn) [Compound 37, 4-amino-N-(6-((1,4-dimethyl-1H-pyrazol-3-yl)ethynyl)-2,3-dihydrobenzofuran-3-yl)-7-fluoro-N,1-dimethyl-1H-pyrazolo[4,3-c]quinoline-8-carboxamide]	93
1	62	Cc1cc2nc(N)c3cnn(C)c3c2cc1C(=O)N(C)[C@@H]1COc2cc(C#Cc3cnn(C(F)F)c3)ccc21 [Compound 83A]	62
5.4	593	CCN(C(=O)c1ccc2nc(N)c3cnn(C)c3c2c1)C1COc2cc(C#Cc3cnn(C)c3)ccc21 (stereo not drawn) [Compound 7, 4-amino-N-ethyl-1-methyl-N-(6-((1-methyl-1H-pyrazol-4-yl)ethynyl)-2,3-dihydrobenzofuran-3-yl)-1H-pyrazolo[4,3-c]quinoline-8-carboxamide]	110
3.6	475	CN(C(=O)c1cc2c3c(c(N)nc2cc1Cl)COC3)[C@@H]1COc2cc(C#Cc3cccnc3)ccc21 [Compound 70A, (S)-4-amino-7-chloro-N-methyl-N-(6-(pyridin-3-ylethynyl)-2,3-dihydrobenzofuran-3-yl)-1,3-dihydrofuro[3,4-c]quinoline-8-carboxamide]	132
3.2	185	CCN(C(=O)c1cc2c(cc1F)nc(N)c1cnn(C)c12)C1COc2cc(C#Cc3cnn(C)c3)ccc21 (stereo not drawn) [Compound 27, 4-amino-N-ethyl-7-fluoro-1-methyl-N-(6-((1-methyl-1H-pyrazol-4-yl)ethynyl)-2,3-dihydrobenzofuran-3-yl)-1H-pyrazolo[4,3-c]quinoline-8-carboxamide]	58
4.5	777	CN(C(=O)c1cc2c3c(c(N)nc2cc1Cl)COC3)[C@@H]1COc2cc(C#Cc3cnn4c3CCC4)ccc21 [Compound 88A, (S)-4-amino-7-chloro-N-(6-((5,6-dihydro-4H-pyrrolo[1,2-b]pyrazol-3-yl)ethynyl)-2,3-dihydrobenzofuran-3-yl)-N-methyl-1,3-dihydrofuro[3,4-c]quinoline-8-carbox amide]	173
1	55	Cc1c(C#Cc2ccc3c(c2)OC[C@H]3N(C)C(=O)c2cc3c(cc2Cl)nc(N)c2cnn(C)c23)cnn1C [Compound 22A, (S)-4-amino-7-chloro-N-(6-((1,5-dimethyl-1H-pyrazol-4-yl)ethynyl)-2,3-dihydrobenzofuran-3-yl)-N,1-dimethyl-1H-pyrazolo[4,3-c]quinoline-8-carboxamide]	55
9.8	1500	Cc1c(C#Cc2ccc3c(c2)OCC3N(C)C(=O)c2ccc3nc(N)c4cnn(C)c4c3c2)cnn1C (stereo not drawn) [Compound 29, 4-amino-N-(6-((1,5-dimethyl-1H-pyrazol-4-yl)ethynyl)-2,3-dihydrobenzofuran-3-yl)-N,1-dimethyl-1H-pyrazolo[4,3-c]quinoline-8-carboxamide]	153
2.7	122	Cc1cn(C)nc1C#Cc1ccc2c(c1)OC[C@H]2N(C)C(=O)c1cc2c(cc1Cl)nc(N)c1cnn(C)c12 [Compound 81A, (S)-4-amino-7-chloro-N-(6-((1,4-dimethyl-1H-pyrazol-3-yl)ethynyl)-2,3-dihydrobenzofuran-3-yl)-N,1-dimethyl-1H-pyrazolo[4,3-c]quinoline-8-carboxamide]	45
11	607	CC(C)n1cc(C#Cc2ccc3c(c2)OCC3N(C)C(=O)c2cc3c(cc2F)nc(N)c2cnn(C)c23)cn1 (stereo not drawn) [Compound 13, 4-amino-7-fluoro-N-(6-((1-isopropyl-1H-pyrazol-4-yl)ethynyl)-2,3-dihydrobenzof uran-3-yl)-N,1-dimethyl-1H-pyrazolo[4,3-c]quinoline-8-carboxamide]	55
2	85	Cc1ccncc1C#Cc1ccc2c(c1)OC[C@H]2N(C)C(=O)c1cc2c(cc1Cl)nc(N)c1cnn(C)c12 [Compound 63A, (S)-4-amino-7-chloro-N,1-dimethyl-N-(6-((4-methylpyridin-3-yl)ethynyl)-2,3-dihydrobenzofuran-3-yl)-1H-pyrazolo[4,3-c]quinoline-8-carboxamide]	43
22	2270	CN(C(=O)c1cc2c(cc1F)nc(N)c1cnn(C)c12)C1COc2cc(C#Cc3cn(C)nc3C(F)(F)F)ccc21 (stereo not drawn) [Compound 32, 4-amino-7-fluoro-N,1-dimethyl-N-(6-((1-methyl-3-(trifluoromethyl)-1H-pyrazol-4-yl)ethynyl)-2,3-dihydrobenzofuran-3-yl)-1H-pyrazolo[4,3-c]quinoline-8-carboxamide]	103
7	365	CN(C(=O)c1cc2c(cc1F)nc(N)c1cnn(C)c12)C1COc2cc(C#Cc3ccn(C)n3)ccc21 (stereo not drawn) [Compound 21, 4-amino-7-fluoro-N,1-dimethyl-N-(6-((1-methyl-1H-pyrazol-3-yl)ethynyl)-2,3-dihydrobenzofuran-3-yl)-1H-pyrazolo[4,3-c]quinoline-8-carboxamide]	52
4.6	305	Cc1ccc(C#Cc2ccc3c(c2)OC[C@H]3N(C)C(=O)c2cc3c(cc2F)nc(N)c2cnn(C)c23)cn1 [Compound 59A, (S)-4-amino-7-fluoro-N,1-dimethyl-N-(6-((6-methylpyridin-3-yl)ethynyl)-2,3-dihydrobenzofuran-3-yl)-1H-pyrazolo[4,3-c]quinoline-8-carboxamide]	66
1.8	378	Cc1nn(C)cc1C#Cc1ccc2c(c1)OC[C@H]2N(C)C(=O)c1ccc2nc(N)c3cnn(C)c3c2c1 [Compound 49A, (S)-4-amino-N-(6-((1,3-dimethyl-1H-pyrazol-4-yl)ethynyl)-2,3-dihydrobenzofuran-3-yl)-N,1-dimethyl-1H-pyrazolo[4,3-c]quinoline-8-carboxamide]	210
